Laboratory results as given in paper PMC9017385, “Pharmacokinetics of Temsavir, the Active Moiety of the HIV-1 Attachment Inhibitor Prodrug, Fostemsavir, Coadministered with Cobicistat, Etravirine, Darunavir/Cobicistat, or Darunavir/Ritonavir with or without Etravirine in Healthy Participants” (Antimicrobial Agents and Chemotherapy, 2022).
One block for each molecule: values may come before it.

Assays:
[1] = Study 206281: plasma PK of DRV, RTV and ETR with or without FTR
Description: (§1) Participants were randomly assigned to one of three cohorts per a computer-generated randomization scheme. • Cohort 1: Participants received FTR at 600 mg twice daily (BID) on days 1 to 4. […] After a 2-day washout (days 5 and 6), participants received ETR at 200 mg BID for 10 days (days 7 to 16) followed by FTR at 600 mg BID with ETR at 200 mg BID for 10 days (days 17 to 26). • Cohort 3: Participants received FTR at 600 mg BID on days 1 to 4.
(§2) Eligible participants were admitted to the clinical facility on day −1 of each study. […] Physical examinations, measurements of vital signs, 12-lead ECGs, and clinical laboratory evaluations were performed, and participants were closely monitored for AEs and SAEs, throughout both studies.
(§3) (i) Bioanalytical methods and PK analysis. […] The lower limit of quantification and the upper limit of quantification for the analysis of TMR in both studies were 5 ng/mL and 5,000 ng/mL, respectively.
(§4) (ii) PK analysis. For both studies, individual participant PK parameter values were derived by noncompartmental methods with a validated PK analysis program using actual times. […] Cmax, Tmax, C12, and C24 were recorded directly from experimental observations and AUCtau was calculated by mixed log-linear trapezoidal summations.
(§5) SAS software version 9.2 (SAS Institute, Inc., Cary, North Carolina) was used for all statistical analyses, tabulations, and graphical presentations. For all treatment comparisons, a linear mixed-effect model was fitted to the log-transformed data with treatment as fixed effect and measurements within each participant as repeated measures, for use in the estimation of effects and the construction of CIs. Point estimates and 90% CIs for differences on the log scale were exponentiated to obtain estimates for GMRs and respective 90% CIs on the original scale. […] FTR administered alone was the reference treatment for both studies.

[2] = Study 206281: safety, adverse events; type: in vivo, human; details: A fostemsavir 600 mg BID, B DRV/r 600/100 mg BID, C ETR 200 mg BID
Description: as §1, §2

[3] = Study 206285: plasma PK of temsavir after FTR alone or with DRV/c or COBI; type: in vivo, human
Description: as §2, §3, §4, §5

[4] = Study 206281: plasma PK of temsavir after FTR alone or with DRV/r, ETR, or DRV/r plus ETR; type: in vivo, human
Description: as §1, §2, §3, §4, §5

[5] = QT prolongation at supratherapeutic FTR dose; type: in vivo, human; details: supratherapeutic FTR 2,400 mg BID
P-glycoprotein (P-gp) = test system: P-glycoprotein (P-gp); parameters: method as in earlier work; details: preclinical studies; cited from earlier work
[6] = test system: breast cancer resistance protein (BCRP); details: not told; cited from earlier work
[7] = Study 206285: safety, adverse events
Description: Participants were sequentially enrolled to two cohorts. • Cohort 1: Participants received FTR at 600 mg BID on days 1 to 4. […] Participants then received FTR at 600 mg BID plus COBI at 150 mg QD on days 5 to 14 (Fig. 4B).

HIV-1 = test system: HIV-1; parameters: method as in PMID 32212519; details: through 8 days of FTR functional monotherapy with failing regimen; HTE HIV-1-infected participants, randomized cohort; P < 0.0001; cited from earlier work
[8] = DRV/r plus ETR with FTR vs DRV/r plus ETR, study 206281 cohort 3
[9] = ETR with FTR vs ETR alone, study 206281 cohort 2
[10] = FTR coadministered with COBI vs FTR alone, study 206285 cohort 2
[11] = FTR coadministered with DRV and COBI (DRV/c) vs FTR alone, study 206285 cohort 1
[12] = FTR coadministered with DRV/r and ETR vs FTR alone, study 206281 cohort 3
[13] = FTR coadministered with DRV/r vs FTR alone, study 206281 cohort 1
[14] = FTR coadministered with ETR vs FTR alone, study 206281 cohort 2
[15] = FTR coadministered with ETR vs FTR alone, study 206281 cohort 2, listed as TMR
[16] = FTR plus DRV/r plus ETR vs DRV/r plus ETR, study 206281 cohort 3
[17] = FTR with DRV/r vs DRV/r, study 206281 cohort 1
[18] = FTR with DRV/r + ETR vs DRV/r plus ETR, study 206281 cohort 3

Structure (SMILES): Cc1cc(C#N)cc(C)c1Oc1nc(Nc2ccc(C#N)cc2)nc(N)c1Br [ETR, reference compound]
increase in ETR AUCtau [1, 8]: 28%
increase in ETR C12 [1, 8]: 28%
increase in ETR Cmax [1, 8]: 18%
increase in ETR AUCtau [1, 9]: 11%
increase in ETR C12 [1, 9]: 14%
increase in ETR Cmax [1, 9]: 11%
AUC ([1]; human, plasma, oral, 200 mg): 7820 ng·h/mL
Cmax ([1]; human, plasma, oral, 200 mg): 846 ng/mL
concentration at 12 h ([1]; human, plasma, oral, 200 mg): 457 ng/mL
Abdominal distension [2]: 0 No. of patients (%)
Aphthous stomatitis [2]: 0 No. of patients (%)
Back pain [2]: 0 No. of patients (%)
Diarrhea [2]: 0 No. of patients (%)
Dizziness [2]: 0 No. of patients (%)
Drug eruption [2]: 2 (14.3) No. of patients (%)
Dry mouth [2]: 0 No. of patients (%)
Fatigue [2]: 0 No. of patients (%)
Headache [2]: 0 No. of patients (%)
Muscle spasms [2]: 0 No. of patients (%)
Nausea [2]: 0 No. of patients (%)
Pruritus [2]: 0 No. of patients (%)
Pruritus generalized [2]: 1 (7.1) No. of patients (%)
Somnolence [2]: 0 No. of patients (%)
Subjects with any AE [2]: 4 (28.6) No. of patients (%)

Structure (SMILES): COc1cnc(-n2cnc(C)n2)c2c1c(C(=O)C(=O)N1CCN(C(=O)c3ccccc3)CC1)cn2COP(=O)(O)O [Fostemsavir]
Back pain ([7]; study 206285 cohort 1): 1 (6.3) No. of patients (%)
Constipation ([7]; study 206285 cohort 1): 0 No. of patients (%)
Cough ([7]; study 206285 cohort 1): 0 No. of patients (%)
Headache ([7]; study 206285 cohort 1): 3 (18.8) No. of patients (%)
Myalgia ([7]; study 206285 cohort 1): 0 No. of patients (%)
Nausea ([7]; study 206285 cohort 1): 1 (6.3) No. of patients (%)
Neutrophil count decreased ([7]; study 206285 cohort 1): 0 No. of patients (%)
Oropharyngeal pain ([7]; study 206285 cohort 1): 2 (12.5) No. of patients (%)
Pain ([7]; study 206285 cohort 1): 0 No. of patients (%)
Participants with AE ([7]; study 206285 cohort 1): 6 (37.5) No. of patients (%)
Vomiting ([7]; study 206285 cohort 1): 1 (6.3) No. of patients (%)
WBC decreased ([7]; study 206285 cohort 1): 0 No. of patients (%)
Back pain ([7]; study 206285 cohort 2): 1 (6.3) No. of patients (%)
Constipation ([7]; study 206285 cohort 2): 0 No. of patients (%)
Cough ([7]; study 206285 cohort 2): 0 No. of patients (%)
Headache ([7]; study 206285 cohort 2): 1 (6.3) No. of patients (%)
Myalgia ([7]; study 206285 cohort 2): 0 No. of patients (%)
Nausea ([7]; study 206285 cohort 2): 0 No. of patients (%)
Neutrophil count decreased ([7]; study 206285 cohort 2): 0 No. of patients (%)
Oropharyngeal pain ([7]; study 206285 cohort 2): 0 No. of patients (%)
Pain ([7]; study 206285 cohort 2): 0 No. of patients (%)
Participants with AE ([7]; study 206285 cohort 2): 3 (18.8) No. of patients (%)
Vomiting ([7]; study 206285 cohort 2): 0 No. of patients (%)
WBC decreased ([7]; study 206285 cohort 2): 0 No. of patients (%)
Abdominal distension [2]: 0 No. of patients (%)
Aphthous stomatitis [2]: 0 No. of patients (%)
Back pain [2]: 0 No. of patients (%)
Diarrhea [2]: 0 No. of patients (%)
Dizziness [2]: 0 No. of patients (%)
Drug eruption [2]: 0 No. of patients (%)
Dry mouth [2]: 1 (2.2) No. of patients (%)
Fatigue [2]: 0 No. of patients (%)
Headache [2]: 1 (2.2) No. of patients (%)
Muscle spasms [2]: 0 No. of patients (%)
Nausea [2]: 1 (2.2) No. of patients (%)
Pruritus [2]: 1 (2.2) No. of patients (%)
Pruritus generalized [2]: 0 No. of patients (%)
Somnolence [2]: 0 No. of patients (%)
Subjects with any AE [2]: 6 (13.0) No. of patients (%)
adjusted mean decline in HIV-1 RNA (HIV-1): 0.8 log10 copies/mL

Structure (SMILES): CC(C)CN(C[C@@H](O)[C@H](Cc1ccccc1)NC(=O)O[C@H]1CO[C@H]2OCC[C@H]21)S(=O)(=O)c1ccc(N)cc1 [DRV]
decrease in DRV AUCtau [1, 18]: 6%
decrease in DRV C12 [1, 18]: 12%
decrease in DRV Cmax [1, 18]: 5%

Now from value to molecule, other results behind:

increase in TMR AUCtau [3, 10]: 93%
increase in TMR C12 (Ctau in abstract) [3, 10]: 136%
increase in TMR Cmax [3, 10]: 71%
increase in TMR AUCtau [3, 11]: 97%
increase in TMR C12 (Ctau in abstract) [3, 11]: 124%
increase in TMR Cmax [3, 11]: 79%
increase in TMR AUCtau [4, 12]: 34%
increase in TMR C12 (Ctau in abstract) [4, 12]: 33%
increase in TMR Cmax [4, 12]: 53%
increase in TMR AUCtau [4, 13]: 63%
increase in TMR C12 (Ctau in abstract) [4, 13]: 88%
increase in TMR Cmax [4, 13]: 52%
decrease in TMR exposures ([4]; FTR coadministered with ETR): approximately 50%
decrease in TMR AUCtau [4, 14]: 50%
decrease in TMR C12 (Ctau in abstract) [4, 14]: ~50%
decrease in TMR Cmax [4, 14]: ~50%
decrease in TMR C12 (Ctau in abstract) [4, 15]: 52%
decrease in TMR Cmax [4, 15]: 48%
Structure (SMILES): COc1cnc(-n2cnc(C)n2)c2[nH]cc(C(=O)C(=O)N3CCN(C(=O)c4ccccc4)CC3)c12 [Temsavir]
fold by which exposures with TMR Cmax-driven QT prolongation exceed geometric mean TMR exposures of the current studies [5]: > 2 fold
P-glycoprotein (P-gp) substrate (P-glycoprotein (P-gp)): substrate
BCRP substrate [6]: substrate

increase in RTV AUCtau [1, 16]: 9%
increase in RTV C12 [1, 16]: 7%
increase in RTV Cmax [1, 16]: 14%
change in RTV Cmax [1, 17]: no meaningful change
increase in RTV AUCtau [1, 17]: 15%
increase in RTV C12 [1, 17]: 19%
Structure (SMILES): CC(C)c1nc(CN(C)C(=O)N[C@H](C(=O)N[C@@H](Cc2ccccc2)C[C@H](O)[C@H](Cc2ccccc2)NC(=O)OCc2cncs2)C(C)C)cs1 [RTV]
